“And” between values parts separate entries of the source, which are not always exact repeats. Identical values can stand only once.
Tests used:
[1] = target: T1, human granulocyte elastase (HGE) (Homo sapiens, UniProt P08246); assay: Inhibition of human granulocyte elastase (HGE), SAAVNA substrate; format: biochemical
T1 construct: HGE prepared according to the method of Andrews et al; from tissue
T1 sequence (P08246 30-247 limits assumed): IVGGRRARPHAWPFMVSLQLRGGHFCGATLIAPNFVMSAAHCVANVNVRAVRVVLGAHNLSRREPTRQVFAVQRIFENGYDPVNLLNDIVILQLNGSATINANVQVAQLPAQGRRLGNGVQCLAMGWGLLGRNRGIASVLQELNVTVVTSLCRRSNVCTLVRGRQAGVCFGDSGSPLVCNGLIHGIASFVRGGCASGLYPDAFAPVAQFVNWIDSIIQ
Description: (a) HGE prepared according to the method of Andrews et al (Chem. Biological Int. 47, 157, 1983) was used to degrade
the synthetic specific substrate for this enzyme-(succinyl-dialanyl-valyl nitroanalide (SAAVNA)).
In these experiments the inhibitory activity of DH40J, PPS as SP54® and mixtures of SP54® and ZnSO4 in various proportions against HGE using the same condition as in (a), except that a different enzyme preparation was used, were investigated. […] A variety of ratios of Zn^+ to SP54® were tested for their ability to inhibit the HGE.

[2] = test system: mature rabbit articular cartilage; settings: 8 week intra-articular treatment
[3] = test system: human synovial fibroblasts (line derived from OA joints); assay: In vitro biosynthesis of hyaluronic acid by synovial fibroblasts; format: cell-based; settings: for in vitro biosynthesis of hyaluronic acid (HA): FIG. 1, 2, 17
[4] = in vitro; Arch. Int. Pharmacodyn. Ther. 282, 196-208 (1986); cited from earlier work
[5] = test system: articular cartilages implanted in rat air pouches; assay: Rat air pouch model, loss of proteoglycans from implanted articular cartilage; format: in vivo; settings: 10 mg/kg/day into the air pouch for seven days, peptone inflammation; FIG. 12
Description: This model was originally described by Sin, M. Y., et al J. Path. 141, 23 (1984) and Sedgwick A. D. et al Ann. Rheum. Dis. 43, 418 (1984) and provides a convenient and reproducable method of evaluating the effects of drugs on cartilage metabolism in vivo. This model was used to investigate the influence of SP54® and DH40J when administered into the rat air pouch at 10 mg/kg on the loss of cartilage proteoglycans (PGs) induced by an inflammatory cell invasion of the pouch.
Air pouches were created on the dorsal surface of male 200 gm Wistar rats by the initial injection of 20 ml of sterile air. Re-injection every second day maintained cavity inflation. Articular cartilage (AC) aseptically harvested from the knee joints of 10 week old New Zealand White rabbits, was implanted into formed 7 day old rat air pouches. Drugs (10 mg/kg), diluted in saline, were administered daily into the air pouch beginning the day of cartilage implantation. Saline was administered to a control group. Inflammation of the air pouch was achieved by the injection of 10 ml of sterile 3% peptone into the pouch every second day, beginning the day of cartilage implantation. […] Cells in the APF were stained with crystal violet and a total cell count determined. […] Implanted AC (8-10 mgs) was digested by papain and PG content was determined by hexuronic acid and sulphated glycosaminoglycan (GAG) analysis. […]

[6] = Table 7, different enzyme preparation, single inhibitor

O=S(=O)([O-])[O-].[Zn+2] [ZnSO4, zinc sulphate]
IC50 (HGE inhibition) [1, 6]: 10 µg/mL

C[C@]12CCC(=O)C=C1CC[C@@H]1[C@@H]2[C@@H](O)C[C@@]2(C)[C@H]1CC[C@]2(O)C(=O)CO [Cortisone, hydrocortisone]
4M Gu HCl,PG Extractability ([2]; individual joints): 53.2% and 57.6% and 56.8% and 51.5% | 35S-PG Specific (activity) ([2]; individual joints): 896.8 DPM/ug UA and 866.6 DPM/ug UA and 1061.4 DPM/ug UA and 854.2 DPM/ug UA | Hexuronic Acid(UA) ([2]; individual joints, hydrocortisone 50 mg, pentosan polysulphate 5 mg): 27.4 ug/mg dry wt. and 23.2 ug/mg dry wt. and 20.0 ug/mg dry wt. and 21.8 ug/mg dry wt. | 4M Gu HCl,PG Extractability Mean ± SD ([2]; n = 4 joints): 54.7 ± 2.9% | 35S-PG Specific (activity) Mean ± SD ([2]; n = 4 joints): 919.7 ± 96.1 DPM/ug UA | Hexuronic Acid(UA) Mean ± SD ([2]; n = 4 joints): 23.1 ± 3.1 ug/mg dry wt. | in vitro biosynthesis of hyaluronic acid (HA) [3]: progressively inhibited

pentosan polysulphate sodium salt [SP54]
in vitro biosynthesis of hyaluronic acid (HA) [3]: stimulates the biosynthesis of hyaluronic acid (HA) | restoration of HA biosynthesis suppressed by hydrocortisone ([3]; hydrocortisone at 10^6 M (so in the source), drug at 0.25 ug/ml, FIG. 19, 21): almost, but not totally, restored to control value | restoration of HA biosynthesis suppressed by hydrocortisone ([3]; hydrocortisone at 10^8 M (so in the source), drug 0.1-1.0 ug/ml, FIG. 20): fully restored synthesis to control values | prevention of the effects of hydrocortisone on synovial fibroblast biosynthesis of HA ([3]; in vitro): could prevent the deleterious effects of hydrocortisone | improving proteoglycan incorporation into the extracellular matrix [4]: active in vitro in improving proteoglycan incorporation into the extracellular matrix | IC50 (HGE inhibition) ([1]; Table 6, 1 μg HGE/ml, 0.2 mM SAAVNA, pH 7.4, 37° C.): 0.249 µg/mL | IC50 (HGE inhibition) [1, 6]: 0.381 µg/mL | % DIFFERENCE from SP54 (IC50, HGE) ([1]; Table 7, single inhibitor): 0% | loss of proteoglycans (uronic acid) from implanted articular cartilage [5]: equally effective in preventing the loss of proteoglycans
